This passage reports IC50, Inhibition and Enhancement results from ChEMBL document CHEMBL1159184, “7-Silylcamptothecins (silatecans): A new family of camptothecin antitumor agents” (Bioorg Med Chem Lett, 1997).

The test system of assay [1] is DC3F. Nature of the assay: Tested in vitro for growth inhibitory activity against DC-3F (hamster lung) cells. Format: functional, cell-based. The conditions noted are these: Cricetulus griseus.
The nature of assay [2]: The compound was evaluated for inhibition of topoisomerase I mediated DNA relaxation of supercoiled DNA. Format: functional.
A short description of assay [3]: The compound was evaluated for enhancement of topoisomerase I mediated DNA cleavage of supercoiled DNA; 0.1-1. Format: functional.
A further assay concerns 833K. Nature of the assay: Tested in vitro for growth inhibitory activity against 833K (human teratorcarcinoma) cells. The class given is functional, cell-based.
For the next assay, the system named is HL-60. Nature of the assay: Tested in vitro for growth inhibitory activity against HL60 (human promyelocytic leukemic) cells. The class given is functional, cell-based.
Assay [4] in a line: The compound was evaluated for inhibition of topoisomerase I mediated DNA relaxation of supercoiled DNA; 1-2. Format: functional.
Assay [5] is described as follows: The compound was evaluated for enhancement of topoisomerase I mediated DNA cleavage of supercoiled DNA; 1-2. The class given is functional.
The nature of assay [6]: The compound was evaluated for inhibition of topoisomerase I mediated DNA relaxation of supercoiled DNA; 5-20. The class given is functional.
The nature of assay [7]: The compound was evaluated for inhibition of topoisomerase I mediated DNA relaxation of supercoiled DNA; 0.1-1. The class given is functional.
A short description of assay [8]: The compound was evaluated for enhancement of topoisomerase I mediated DNA cleavage of supercoiled DNA; 2-5. The class given is functional.
The test system of assay [9] is DC3F. Nature of the assay: The compound was tested in vitro for growth inhibitory activity against DC-3F (hamster lung) cells; Inactive. Format: functional, cell-based, Cricetulus griseus.

Take `CC[C@@]1(O)C(=O)OCc2c1cc1n(c2=O)Cc2c-1nc1cc(F)ccc1c2[Si](C)(C)C`: the IC50 in the assay with DC3F [1] worked out at 2 nM; with 833K it was 0.92 nM; with HL-60, 0.75 nM. The Inhibition in assay [2] was under 0.1 µM. In addition, the Enhancement in assay [3] was determined as 0.1 µM.
`CC[C@@]1(O)C(=O)OCc2c1cc1n(c2=O)Cc2c-1nc1c(F)c(F)ccc1c2[Si](C)(C)C` showed an Inhibition in assay [4] of 1 µM. Besides, the Enhancement in [5] amounted to 1 µM. Also, the IC50 with DC3F [1] is 2.5 nM; with 833K, 2.1 nM; with HL-60 it was 1.01 nM.
In the case of `CCC(=O)OCc1c([C@@](O)(CC)C(=O)NCCN(C)C)cc2n(c1=O)Cc1c-2nc2ccc(O)cc2c1[Si](C)(C)C`, the Enhancement in [5] stood at 1 µM. Also, the half-inhibitory concentration (IC50) in the assay on DC3F [1] was determined as 14.2 nM; with 833K, 15 nM; in the assay on HL-60, 9.7 nM. In assay [6], this compound came in with an Inhibition of 5 µM.
In the case of `CC[C@@]1(O)C(=O)OCc2c1cc1n(c2=O)Cc2c-1nc1ccc(O)cc1c2[Si](C)(C)C`, the IC50 in the assay on DC3F [1] came to 6.9 nM; in the assay with 833K, 7 nM; in the assay on HL-60 it was 2.6 nM. This compound also displayed an Inhibition in assay [2] of under 0.1 µM. Also, the Enhancement in [3] is 0.1 µM.
In assay [4], `CC[C@@]1(O)C(=O)OCc2c1cc1n(c2=O)Cc2cc3ccccc3nc2-1` [CAMPTOTHECIN] came in with an Inhibition of 1 µM. In addition, the Enhancement in assay [5] turned out to be 1 µM. Further, the IC50 worked out at 6 nM with DC3F [1], 10 nM in the assay with 833K and 5 nM in the assay with HL-60.
Regarding `CC[C@@]1(O)C(=O)OCc2c1cc1n(c2=O)Cc2c-1nc1ccc(N3CCCC3N3CCCC3OC(N)=O)cc1c2[Si](C)(C)C` (stereo not given in full), the values for the half-maximal inhibitory concentration (IC50) in the assay on DC3F [1], with 833K and in the assay with HL-60 were 256 nM, 214 nM and 66 nM, respectively.
In the case of `CCc1c2c(nc3ccc(N4CCCC4N4CCCC4OC(N)=O)cc13)-c1cc3c(c(=O)n1C2)COC(=O)[C@]3(O)CC` (stereo not given in full), the IC50 with DC3F [1] stood at 372 nM; in the assay with 833K it was 487 nM; in the assay on HL-60 it was 270 nM.
Consider `CC[C@@]1(O)C(=O)OCc2c1cc1n(c2=O)Cc2c-1nc1cc(N)ccc1c2[Si](C)(C)C`, for which the IC50 with DC3F [1] is 6.4 nM; in the assay with 833K it was 7.4 nM; with HL-60 it was 2.6 nM.
For `CC[C@@]1(O)C(=O)OCc2c1cc1n(c2=O)Cc2c-1nc1cc(F)c(N)cc1c2[Si](C)(C)C`, the IC50 is 0.29 nM in the assay with DC3F [1], 0.14 nM in the assay on 833K and 0.07 nM in the assay with HL-60. The same compound showed an Inhibition in assay [7] of 0.1 µM. Besides, the Enhancement in assay [3] turned out to be 0.1 µM.
Consider `CC[C@@]1(O)C(=O)OCc2c1cc1n(c2=O)Cc2c-1nc1ccccc1c2[Si](C)(C)C`, for which the IC50 with DC3F [1] turned out to be 4.2 nM; with 833K it was 5.6 nM; in the assay on HL-60, 3.8 nM. The same compound came in with an Inhibition in assay [7] of 1 µM. The Enhancement in assay [3] was found to be 0.1 µM.
For `CC[C@@]1(O)C(=O)OCc2c1cc1n(c2=O)Cc2c-1nc1ccccc1c2[Si](C)(C)C(C)(C)C` the same measures were 2.9 nM, 1.2 nM, 0.12 nM, 1 µM and 0.1 µM.
Take `CC[C@@]1(O)C(=O)OCc2c1cc1n(c2=O)Cc2c-1nc1ccc(OC(C)=O)cc1c2[Si](C)(C)C`: the IC50 in the assay with DC3F [1] stood at 6.7 nM; in the assay with HL-60, 2.7 nM. In assay [2], this compound gave an Inhibition of under 0.1 µM. For the same compound, in assay [3], the Enhancement was 0.1 µM.
As for `CC[C@@]1(O)C(=O)OCc2c1cc1n(c2=O)Cc2c-1nc1ccc(N)cc1c2[Si](C)(C)C`, the IC50 in the assay with DC3F [1] came to 0.72 nM; in the assay with 833K, 5.7 nM; in the assay with HL-60, 0.52 nM.
Consider `CC[C@@]1(O)C(=O)OCc2c1cc1n(c2=O)Cc2c-1nc1ccccc1c2[Si](c1ccccc1)(c1ccccc1)C(C)(C)C`, for which, in assay [8], the Enhancement is 2 µM. The IC50 stood at 663 nM with DC3F [1], 243 nM in the assay on 833K and 339 nM in the assay on HL-60. Further, the Inhibition in [6] was 5 µM.
With `CC[C@@]1(O)C(=O)OCc2c1cc1n(c2=O)Cc2c-1nc1cccc(F)c1c2[Si](C)(C)C`, the IC50 came out at 8.2 nM with DC3F [1], 2.9 nM with 833K and 3 nM in the assay with HL-60. This compound also came in with an Inhibition in assay [7] of 0.1 µM. Further, in [3], the Enhancement turned out to be 0.1 µM.
With `CC[C@@]1(O)C(=O)OCc2c1cc1n(c2=O)Cc2c-1nc1ccc(CCc3ccc4nc5c(c([Si](C)(C)C)c4c3)Cn3c-5cc4c(c3=O)COC(=O)[C@]4(O)CC)cc1c2[Si](C)(C)C`, the half-inhibitory concentration (IC50) entry in the assay on DC3F [9] is “Not Active”; in the assay with 833K it was 84 nM; in the assay with HL-60, 53 nM. This compound had an Inhibition in assay [2] of over 20 µM.

The IC50 is the concentration that inhibits the measured activity by half.
